Values after ≈ are worked out from the molar mass of the structure shown.

In general, MIC refers to the least concentration at which growth counts as inhibited.

Common to all, as to test: Bacterial growth minimal inhibitory concentration (broth microdilution, CLSI M7-A7)
Common to all, as to format: cell-based

In assay [1] the test system is Acinetobacter baumannii T6474. As to conditions: Acinetobacter baumannii, T6474, cation-adjusted Mueller-Hinton Broth, multiply-resistant strain (in particular quinolone-resistant). The method, boiled down:
(§1)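 Broth microdilution after CLSI M7-A7 in cation-adjusted Mueller-Hinton medium gave MIC values in mg/L.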

Assay [2] concerns Enterococcus faecium A949. As to conditions: Enterococcus faecium, A949, cation-adjusted Mueller-Hinton Broth, multiply-resistant strain (in particular quinolone-resistant), read-out: MIC for E. faecium A949. The essentials: as §1
Assay [3] has as its system Moraxella catarrhalis A894. As to conditions: Moraxella catarrhalis, A894, cation-adjusted Mueller-Hinton Broth, quinolone-sensitive strain. The essentials: as §1
Assay [4] deals with Staphylococcus aureus A798. As to conditions: Staphylococcus aureus, A798, cation-adjusted Mueller-Hinton Broth, multiply-resistant strain (in particular quinolone-resistant), read-out: MIC for S. aureus A798. The method, boiled down:
as §1

Assay [5] concerns Staphylococcus aureus ATCC29213. As to conditions: Staphylococcus aureus, ATCC29213, cation-adjusted Mueller-Hinton Broth, methicillin-sensitive and quinolone-sensitive strain, read-out: MIC for S. aureus ATCC29213. The method, boiled down: as §1

In the case of `N#Cc1cccnc1-c1cccc(CNCC[C@H]2CN(c3ccc4c(n3)NC(=O)CO4)C(=O)O2)c1` [Example 62, 2-[3-({2-[(S)-2-oxo-3-(3-oxo-3,4-dihydro-2H-pyrido[3,2-b][1,4]oxazin-6-yl)-oxazolidin-5-yl]-ethylamino}-methyl)-phenyl]-nicotinonitrile], the MIC is 1 µg/mL (≈ 2.13 µM) in assay [1]; 16 µg/mL (≈ 34 µM) in assay [2]; at most 0.063 µg/mL in assay [3]; 2 µg/mL (≈ 4.25 µM) in assay [4]; 1 µg/mL (≈ 2.13 µM) in assay [5].

For the compound `O=C1COc2ccc(N3C[C@H](CCNCc4cccc(-c5cccc(O)c5)c4)OC3=O)nc2N1` [Example 63, 6-((S)-5-{2-[(3′-hydroxy-biphenyl-3-ylmethyl)-amino]-ethyl}-2-oxo-oxazolidin-3-yl)-4H-pyrido[3,2-b][1,4]oxazin-3-one], the MIC in assay [1] is 0.5 µg/mL (≈ 1.09 µM); in assay [2], 16 µg/mL (≈ 34.7 µM); in assay [3] it was at most 0.063 µg/mL; in assay [4], 1 µg/mL (≈ 2.17 µM); in assay [5], 1 µg/mL (≈ 2.17 µM).

Turning to `COc1ccc(OC)c(-c2cccc(CNCC[C@H]3CN(c4ccc5c(n4)NC(=O)CO5)C(=O)O3)c2)c1` [Example 64, 6-((S)-5-{2-[(2′,5′-dimethoxy-biphenyl-3-ylmethyl)-amino]-ethyl}-2-oxo-oxazolidin-3-yl)-4H-pyrido[3,2-b][1,4]oxazin-3-one], the MIC in assay [1] was 16 µg/mL (≈ 31.7 µM); in assay [2], 16 µg/mL (≈ 31.7 µM); in assay [3], at most 0.063 µg/mL; in assay [4], 2 µg/mL (≈ 3.96 µM); in assay [5], 1 µg/mL (≈ 1.98 µM).

`N#CCOc1cccc(-c2cccc(CNCC[C@H]3CN(c4ccc5c(n4)NC(=O)CO5)C(=O)O3)c2)c1` [Example 65, [3′-({2-[(S)-2-oxo-3-(3-oxo-3,4-dihydro-2H-pyrido[3,2-b][1,4]oxazin-6-yl)-oxazolidin-5-yl]-ethylamino}-methyl)-biphenyl-3-yloxy]-acetonitrile]: the minimum inhibitory concentration (MIC) in assay [1] is 2 µg/mL (≈ 4 µM); in assay [2], 16 µg/mL (≈ 32 µM); in assay [3] it was at most 0.063 µg/mL; in assay [4], 1 µg/mL (≈ 2 µM); in assay [5] it was 1 µg/mL (≈ 2 µM).

Consider `N#Cc1ccc(-c2cccc(CNCC[C@H]3CN(c4ccc5c(n4)NC(=O)CO5)C(=O)O3)c2)cc1` [Example 66, 3′-({2-[(S)-2-oxo-3-(3-oxo-3,4-dihydro-2H-pyrido[3,2-b][1,4]oxazin-6-yl)-oxazolidin-5-yl]-ethylamino}-methyl)-biphenyl-4-carbonitrile], for which the MIC in assay [1] is 2 µg/mL (≈ 4.26 µM); in assay [2], 16 µg/mL (≈ 34.1 µM); in assay [3], at most 0.063 µg/mL; in assay [4], 2 µg/mL (≈ 4.26 µM); in assay [5] it was 1 µg/mL (≈ 2.13 µM).

As for `O=C1COc2ccc(N3C[C@H](CCNCc4cccc(-c5cccc(OCCCCO)c5)c4)OC3=O)nc2N1` [Example 67, 6-[(S)-5-(2-{[3′-(4-hydroxy-butoxy)-biphenyl-3-ylmethyl]-amino}-ethyl)-2-oxo-oxazolidin-3-yl]-4H-pyrido[3,2-b][1,4]oxazin-3-one], the MIC in assay [1] came out at 2 µg/mL (≈ 3.76 µM); in assay [2], 8 µg/mL (≈ 15 µM); in assay [3], 0.063 µg/mL (≈ 0.118 µM); in assay [4] it was 0.5 µg/mL (≈ 0.939 µM); in assay [5] it was 1 µg/mL (≈ 1.88 µM).

Take `CCOC(=O)COc1cccc(-c2cccc(CNCC[C@H]3CN(c4ccc5c(n4)NC(=O)CO5)C(=O)O3)c2)c1` [Example 68, [3′-({2-[(S)-2-oxo-3-(3-oxo-3,4-dihydro-2H-pyrido[3,2-b][1,4]oxazin-6-yl)-oxazolidin-5-yl]-ethylamino}-methyl)-biphenyl-3-yloxy]-acetic acid ethyl ester]: the MIC in assay [1] was 8 µg/mL (≈ 14.6 µM); in assay [2], above 8 µg/mL; in assay [3], 0.125 µg/mL (≈ 0.229 µM); in assay [4] it was 1 µg/mL (≈ 1.83 µM); in assay [5], 1 µg/mL (≈ 1.83 µM).

Take `CCOc1cccc(-c2cccc(CNCC[C@H]3CN(c4ccc5c(n4)NC(=O)CO5)C(=O)O3)c2)c1` [Example 70, 6-((S)-5-{2-[(3′-ethoxy-biphenyl-3-ylmethyl)-amino]-ethyl}-2-oxo-oxazolidin-3-yl)-4H-pyrido[3,2-b][1,4]oxazin-3-one]: the MIC in assay [1] amounted to 2 µg/mL (≈ 4.09 µM); in assay [2], 8 µg/mL (≈ 16.4 µM); in assay [3], 0.063 µg/mL (≈ 0.129 µM); in assay [4], 0.5 µg/mL (≈ 1.02 µM); in assay [5], 1 µg/mL (≈ 2.05 µM).
